Source: paper PMC9496321, “6-Furopyridine Hexamethylene Amiloride Is a Non-Selective P2X7 Receptor Antagonist” (Biomolecules, 2022)

What was measured:
P2X7 [1] = molecular target: T1, P2X7 (Homo sapiens, UniProt Q99572); assay: Plate-based flow cytometric YO-PRO-1 dye uptake compound screen in RPMI8226 cells; format: cell-based; design: endogenous in cells; host or cells: RPMI8226 cells; conditions: RPMI8226 cells, plate-based screen
T1 sequence (Q99572 1-595): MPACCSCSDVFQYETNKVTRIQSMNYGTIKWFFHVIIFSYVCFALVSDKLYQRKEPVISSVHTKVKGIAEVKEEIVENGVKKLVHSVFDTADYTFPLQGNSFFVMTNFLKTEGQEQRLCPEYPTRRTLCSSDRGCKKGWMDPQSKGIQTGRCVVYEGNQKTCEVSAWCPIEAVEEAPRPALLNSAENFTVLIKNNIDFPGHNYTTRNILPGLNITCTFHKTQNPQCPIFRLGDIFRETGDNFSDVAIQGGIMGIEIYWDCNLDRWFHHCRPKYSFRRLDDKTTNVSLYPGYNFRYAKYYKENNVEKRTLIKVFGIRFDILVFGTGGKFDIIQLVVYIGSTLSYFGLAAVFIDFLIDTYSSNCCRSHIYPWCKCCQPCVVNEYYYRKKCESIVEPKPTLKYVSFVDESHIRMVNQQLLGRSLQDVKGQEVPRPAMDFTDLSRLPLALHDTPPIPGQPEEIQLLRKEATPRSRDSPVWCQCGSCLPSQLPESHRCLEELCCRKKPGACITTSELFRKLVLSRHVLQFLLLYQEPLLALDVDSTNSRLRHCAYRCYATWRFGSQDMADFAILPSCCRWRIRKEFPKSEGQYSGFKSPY
Protocol: RPMI8226 cells were washed thrice with low-divalent medium (LDM) (145 mM NaCl, 2 mM KCl, 0.2 mM CaCl2, 13 mM D-glucose and 10 mM HEPES, pH 7.5) and 1 × 10^5 cells were added to each well of a 96-well flat-bottomed plate. Amiloride derivatives, at 10 μM (final concentration 5 μM) or vehicle (DMSO) were added, and plates pre-incubated (37 °C, 15 min). […] Wells were washed twice with LDM (300× g, 5 min) and cells were resuspended in LDM. Data was acquired with an Attune NxT Flow Cytometer an Autosampler (Thermo Fisher Scientific). Mean fluorescent intensity (MFI) of YO-PRO-1^+ uptake was determined using FlowJo.

P2X7 [2] = molecular target: T1, P2X7; assay: ATP-induced YO-PRO-1 uptake into human T cells (PBMCs); format: cell-based; design: Human peripheral blood mononuclear cells (PBMCs) were pre-incubated with DMSO (vehicle) or 30 μM 6-FPHMA; endogenous in cells; host or cells: cryopreserved human PBMCs (CD3+, CD4+, CD8+ T cells), four donors; conditions: 30 μM compound, 1 mM ATP
Protocol: ATP-mediated uptake assays were conducted as described with either ethidium bromide or YO-PRO-1 iodide. Briefly, RPMI8226, HEK-hP2X7, HEK-mP2X7, HEK-cP2X7 or cryopreserved human peripheral blood mononuclear cells (PBMCs) were washed thrice with LDM (300× g, 5 min), resuspended in LDM and 1 × 10^6 cells were added to individual tubes. Cells were pre-incubated in the absence of compound (37 °C, 5 min) or in the presence of compound or vehicle (DMSO) (37 °C, 15 min) as indicated. […] An equal volume of ice-cold Mg^2+ stop solution was added and cells centrifuged (300× g, 5 min). Cells were washed twice in LDM (300× g, 5 min), resuspended and data were collected with an LSR Fortessa X-20 flow cytometer. MFI of ethidium^+ or YO-PRO-1^2+ was determined using FlowJo.

human uPA = test system: human uPA; design: method as in PMID 33804289; conditions: cited from earlier work
[3] = test system: hP2X7-mediated IL-1β release; assay: Whole blood IL-1β release assay; format: cell-based; conditions: 30 μM compound, 6 mM ATP, LPS-primed human whole blood
Protocol: Whole blood IL-1β release assays were conducted as described. Briefly, whole human blood was mixed with an equal volume of serum-free RPMI-1640 medium containing LPS (200 ng/mL), added to a flat-bottom 96-well plate and incubated (37 °C, 95% air/5% CO2, 105 min). Compounds (30 μM) or vehicle (DMSO) were added to respective wells and incubated (37 °C, 95% air/5% CO2, 15 min). […] Plates were centrifuged (700× g, 10 min) with the resulting supernatants collected and stored at −80 °C. hIL-1β concentrations were determined using a Human IL-1β ELISA (Thermo Fisher Scientific) according to the manufacturer’s instructions. Samples above the detection limit (7500 pg/mL) were set at 7500 pg/mL for statistical analysis.

| reduction of ATP-induced YO-PRO-1 uptake into CD3+ T cells (P2X7 [2]) | reduction of ATP-induced YO-PRO-1 uptake into CD4+ T cells (P2X7 [2]) | reduction of ATP-induced YO-PRO-1 uptake into CD8+ T cells (P2X7 [2]) | Compound | EC50 (P2X7 [1]) | inhibition of human uPA (human uPA) | reduction of ATP-induced IL-1β compared to vehicle control [3] |
| --- | --- | --- | --- | --- | --- | --- |
|  |  |  | Nc1ncnc2c1ncn2[C@@H]1O[C@H](COP(=O)(O)OP(=O)(O)OP(=O)(O)O)[C@@H](O)[C@H]1O [ATP, adenosine 5′-triphosphate] | ~250 µM |  |  |
| 62 ± 3% | 62 ± 3% | 62 ± 4% | N=C(N)NC(=O)c1nc(-c2cc3cnccc3o2)c(N2CCCCCC2)nc1N [6-FPHMA, 6-furopyridine-substituted 5-(N,N-hexamethylene) amiloride] |  | inhibit | 56 ± 15% |
